Assay [1] deals with T1, NIH-3T3 cells overexpressing human IR (Homo sapiens, UniProt P06213).
T1 construct: expressed in transfected cells; host or cells: NIH-3T3 (mouse fibroblasts)
Briefly: IR cellular autophosphorylation (DELFIA). The note with it: 2 h compound, insulin 3 ug/ml for 15 minutes, IC50 category. It is filed as cell-based. The method, then:
NIH-3T3 cells overexpressing human IGF-1R or IR were plated in 96-well plates (10,000 cells/well) in culture media containing 10% fetal bovine serum and incubated at 37° C. in a 5% CO2 incubator. Twenty four hours post-plating, cells were treated with different concentrations of test compounds ranging from 30 uM to 1.5 nM. Two hours after compound addition, cells were stimulated with either human IGF-1 (30 ng/ml) or insulin (3 ug/ml) for 15 minutes. Cell lysates are analyzed for phosphorylated receptors using dissociation enhanced lanthanide fluor-immuno assay (DELFIA) with anti-IGF-1R (MAB391, R&D Systems, Minneapolis, Minn.) or anti-IRβ (sc-711, Santa Cruz Biotechnology, Santa Cruz, Calif.) capture antibody and europium-labeled anti-pTyr antibody (Eu-N1 PT66, Perkin Elmer, Waltham, Mass.) for detection. The fluorescence signal for cells treated with compounds was expressed as percent relative to 100% stimulation (IGF-1 or insulin stimulated signal).

Assay [2] deals with T2, NIH-3T3 cells overexpressing human IGF-1R (Homo sapiens, UniProt P08069).
T2 construct: expressed in transfected cells; host or cells: NIH-3T3 (mouse fibroblasts)
Briefly: IGF-1R cellular autophosphorylation (DELFIA). It is filed as cell-based. The essentials:
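Receptor autophosphorylation measured by DELFIA, capturing IGF-1R or IRβ and detecting with europium anti-pTyr, reported as percent of IGF-1- or insulin-stimulated signal. Compounds (30 uM to 1.5 nM) added 2 h before ligand, then 15 min stimulation (IGF-1 30 ng/ml or insulin 3 ug/ml).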

The target of assay [3] is T3, human IR (hIR) (Homo sapiens, UniProt P06213).
T3 construct: containing amino acid residues 979-1382 of human IR; made in house; host or cells: Sf9 cells (baculovirus), same process as hIGF1R
Briefly: TR-FRET kinase assay of purified hIR. It is filed as biochemical. The note with it: activated hIR 0.5 nM, 10 μM ATP, values given as pIC50 category. Background: TR-FRET usually uses a lanthanide donor and a delayed reading to cut background.

In assay [4] the target is T4, human IGF1R (hIGF1R) (Homo sapiens, UniProt P08069).
T4 construct: containing amino acid residues 957-1367 of human IGF1R; made in house; host or cells: Sf9 cells (baculovirus)
Put plainly: TR-FRET kinase assay of purified hIGF1R. The format is biochemical. To be noted: activated hIGF1R 0.5 nM, 10 μM ATP, values given as pIC50 category, read-out: IGF-1R pIC50 (converted).

The target of assay [5] is ALK (Homo sapiens, UniProt Q9UM73). Put plainly: ALK enzyme assay (HTRF). The format is biochemical. The note with it: 0.25 nM ALK, 15.0 μM ATP, values given as pIC50 category. The method in brief:
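Isolated ALK phosphorylates a biotinylated tyrosine peptide, 120 min at 20° C; anti-phosphotyrosine Eu-cryptate/streptavidin-XL665 HTRF read after 60 min with EDTA-containing detection mix.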

Bounds are passed on as bounds.

T1 sequence (P06213 28-1382): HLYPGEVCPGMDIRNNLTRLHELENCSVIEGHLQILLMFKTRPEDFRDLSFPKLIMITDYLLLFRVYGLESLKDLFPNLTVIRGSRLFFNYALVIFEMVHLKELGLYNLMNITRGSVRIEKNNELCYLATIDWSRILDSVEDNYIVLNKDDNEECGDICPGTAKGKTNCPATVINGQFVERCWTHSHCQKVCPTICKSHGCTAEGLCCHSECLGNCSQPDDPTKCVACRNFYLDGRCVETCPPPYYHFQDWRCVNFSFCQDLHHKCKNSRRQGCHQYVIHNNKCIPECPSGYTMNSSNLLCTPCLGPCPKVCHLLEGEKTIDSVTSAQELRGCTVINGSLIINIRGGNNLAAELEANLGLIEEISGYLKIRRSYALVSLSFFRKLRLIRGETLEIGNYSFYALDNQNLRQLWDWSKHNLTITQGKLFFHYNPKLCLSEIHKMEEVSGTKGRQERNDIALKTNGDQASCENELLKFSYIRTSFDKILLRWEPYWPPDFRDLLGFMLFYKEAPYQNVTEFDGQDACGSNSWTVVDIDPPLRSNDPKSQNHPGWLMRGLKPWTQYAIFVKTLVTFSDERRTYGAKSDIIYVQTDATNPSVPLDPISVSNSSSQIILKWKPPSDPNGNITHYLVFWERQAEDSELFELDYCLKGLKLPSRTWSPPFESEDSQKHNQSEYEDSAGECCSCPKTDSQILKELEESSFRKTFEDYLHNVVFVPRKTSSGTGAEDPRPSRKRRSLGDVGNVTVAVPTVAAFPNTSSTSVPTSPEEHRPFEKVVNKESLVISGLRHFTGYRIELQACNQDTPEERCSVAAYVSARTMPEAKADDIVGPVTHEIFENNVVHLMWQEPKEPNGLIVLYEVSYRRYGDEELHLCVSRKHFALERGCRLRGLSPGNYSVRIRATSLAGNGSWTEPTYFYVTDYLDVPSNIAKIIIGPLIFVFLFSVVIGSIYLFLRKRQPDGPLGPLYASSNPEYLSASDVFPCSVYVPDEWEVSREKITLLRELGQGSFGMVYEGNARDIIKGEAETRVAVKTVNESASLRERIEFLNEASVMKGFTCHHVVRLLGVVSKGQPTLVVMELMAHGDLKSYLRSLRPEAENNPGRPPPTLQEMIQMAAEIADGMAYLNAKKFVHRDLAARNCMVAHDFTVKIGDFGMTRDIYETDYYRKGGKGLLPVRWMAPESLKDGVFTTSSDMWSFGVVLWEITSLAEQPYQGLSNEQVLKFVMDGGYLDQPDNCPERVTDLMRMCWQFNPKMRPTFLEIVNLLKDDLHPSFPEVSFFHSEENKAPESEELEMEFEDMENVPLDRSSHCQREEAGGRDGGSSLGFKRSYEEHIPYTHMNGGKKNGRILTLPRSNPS
T3 sequence (P06213 979-1382): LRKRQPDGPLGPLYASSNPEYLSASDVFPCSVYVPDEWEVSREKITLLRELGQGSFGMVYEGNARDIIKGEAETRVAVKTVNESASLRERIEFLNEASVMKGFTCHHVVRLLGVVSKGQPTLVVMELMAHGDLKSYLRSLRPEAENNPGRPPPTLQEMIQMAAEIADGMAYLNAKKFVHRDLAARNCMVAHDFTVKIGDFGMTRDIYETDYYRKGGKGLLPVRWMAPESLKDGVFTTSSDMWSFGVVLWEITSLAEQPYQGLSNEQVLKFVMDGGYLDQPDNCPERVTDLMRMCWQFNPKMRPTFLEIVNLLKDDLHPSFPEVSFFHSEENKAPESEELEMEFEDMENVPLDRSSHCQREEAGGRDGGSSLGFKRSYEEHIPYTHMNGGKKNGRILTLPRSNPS
T4 sequence (P08069 957-1367): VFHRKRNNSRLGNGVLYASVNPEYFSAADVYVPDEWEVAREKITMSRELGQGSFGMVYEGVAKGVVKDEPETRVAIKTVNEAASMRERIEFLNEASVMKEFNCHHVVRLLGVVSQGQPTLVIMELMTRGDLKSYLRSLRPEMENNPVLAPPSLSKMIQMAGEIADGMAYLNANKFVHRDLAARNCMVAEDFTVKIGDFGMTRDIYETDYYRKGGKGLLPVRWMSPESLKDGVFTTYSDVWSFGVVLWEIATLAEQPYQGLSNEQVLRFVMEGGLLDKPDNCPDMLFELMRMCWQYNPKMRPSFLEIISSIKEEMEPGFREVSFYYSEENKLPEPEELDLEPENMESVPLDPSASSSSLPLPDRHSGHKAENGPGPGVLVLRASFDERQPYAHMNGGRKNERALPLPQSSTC
ALK, sequence (Q9UM73 19-1620): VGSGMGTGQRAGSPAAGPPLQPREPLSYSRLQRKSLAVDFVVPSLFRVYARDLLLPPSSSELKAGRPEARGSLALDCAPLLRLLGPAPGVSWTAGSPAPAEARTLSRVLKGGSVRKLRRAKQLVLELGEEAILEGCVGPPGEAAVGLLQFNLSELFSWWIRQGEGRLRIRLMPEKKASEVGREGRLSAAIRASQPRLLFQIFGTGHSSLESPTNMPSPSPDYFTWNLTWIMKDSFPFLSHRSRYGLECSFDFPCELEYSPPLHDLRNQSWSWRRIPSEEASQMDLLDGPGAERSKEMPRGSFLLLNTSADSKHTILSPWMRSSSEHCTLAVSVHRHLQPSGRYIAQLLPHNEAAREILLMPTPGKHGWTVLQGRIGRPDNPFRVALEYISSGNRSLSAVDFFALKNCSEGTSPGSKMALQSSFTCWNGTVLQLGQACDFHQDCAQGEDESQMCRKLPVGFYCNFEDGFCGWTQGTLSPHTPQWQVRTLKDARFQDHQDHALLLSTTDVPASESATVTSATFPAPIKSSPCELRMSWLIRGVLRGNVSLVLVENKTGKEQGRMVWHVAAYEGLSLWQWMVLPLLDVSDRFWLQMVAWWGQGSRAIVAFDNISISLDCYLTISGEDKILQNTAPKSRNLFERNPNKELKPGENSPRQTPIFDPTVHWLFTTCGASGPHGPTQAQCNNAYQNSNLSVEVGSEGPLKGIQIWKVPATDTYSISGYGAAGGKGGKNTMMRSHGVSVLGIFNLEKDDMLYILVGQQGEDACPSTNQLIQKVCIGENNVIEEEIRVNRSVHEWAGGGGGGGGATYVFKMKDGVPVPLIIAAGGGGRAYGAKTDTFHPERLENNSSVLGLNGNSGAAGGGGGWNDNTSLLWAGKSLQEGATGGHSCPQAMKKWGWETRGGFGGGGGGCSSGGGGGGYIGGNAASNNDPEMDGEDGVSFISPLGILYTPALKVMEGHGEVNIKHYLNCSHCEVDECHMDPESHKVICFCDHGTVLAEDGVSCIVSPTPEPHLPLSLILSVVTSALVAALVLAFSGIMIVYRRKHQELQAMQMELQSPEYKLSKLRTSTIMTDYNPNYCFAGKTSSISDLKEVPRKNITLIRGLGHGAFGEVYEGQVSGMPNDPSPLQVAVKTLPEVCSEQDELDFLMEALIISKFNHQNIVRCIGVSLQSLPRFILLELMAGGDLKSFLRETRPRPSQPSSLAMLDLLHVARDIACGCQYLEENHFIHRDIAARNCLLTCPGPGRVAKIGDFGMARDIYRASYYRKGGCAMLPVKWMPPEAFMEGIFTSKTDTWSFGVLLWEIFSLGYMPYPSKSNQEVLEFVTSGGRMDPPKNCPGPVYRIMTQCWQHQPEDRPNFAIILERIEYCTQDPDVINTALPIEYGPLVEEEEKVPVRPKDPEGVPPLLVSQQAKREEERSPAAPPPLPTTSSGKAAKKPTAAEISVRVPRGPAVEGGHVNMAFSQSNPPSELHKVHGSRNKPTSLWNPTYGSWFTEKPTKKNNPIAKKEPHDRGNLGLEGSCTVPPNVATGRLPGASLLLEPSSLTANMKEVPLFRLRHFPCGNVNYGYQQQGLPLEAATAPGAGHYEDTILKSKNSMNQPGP
T2 sequence (P08069 31-1367): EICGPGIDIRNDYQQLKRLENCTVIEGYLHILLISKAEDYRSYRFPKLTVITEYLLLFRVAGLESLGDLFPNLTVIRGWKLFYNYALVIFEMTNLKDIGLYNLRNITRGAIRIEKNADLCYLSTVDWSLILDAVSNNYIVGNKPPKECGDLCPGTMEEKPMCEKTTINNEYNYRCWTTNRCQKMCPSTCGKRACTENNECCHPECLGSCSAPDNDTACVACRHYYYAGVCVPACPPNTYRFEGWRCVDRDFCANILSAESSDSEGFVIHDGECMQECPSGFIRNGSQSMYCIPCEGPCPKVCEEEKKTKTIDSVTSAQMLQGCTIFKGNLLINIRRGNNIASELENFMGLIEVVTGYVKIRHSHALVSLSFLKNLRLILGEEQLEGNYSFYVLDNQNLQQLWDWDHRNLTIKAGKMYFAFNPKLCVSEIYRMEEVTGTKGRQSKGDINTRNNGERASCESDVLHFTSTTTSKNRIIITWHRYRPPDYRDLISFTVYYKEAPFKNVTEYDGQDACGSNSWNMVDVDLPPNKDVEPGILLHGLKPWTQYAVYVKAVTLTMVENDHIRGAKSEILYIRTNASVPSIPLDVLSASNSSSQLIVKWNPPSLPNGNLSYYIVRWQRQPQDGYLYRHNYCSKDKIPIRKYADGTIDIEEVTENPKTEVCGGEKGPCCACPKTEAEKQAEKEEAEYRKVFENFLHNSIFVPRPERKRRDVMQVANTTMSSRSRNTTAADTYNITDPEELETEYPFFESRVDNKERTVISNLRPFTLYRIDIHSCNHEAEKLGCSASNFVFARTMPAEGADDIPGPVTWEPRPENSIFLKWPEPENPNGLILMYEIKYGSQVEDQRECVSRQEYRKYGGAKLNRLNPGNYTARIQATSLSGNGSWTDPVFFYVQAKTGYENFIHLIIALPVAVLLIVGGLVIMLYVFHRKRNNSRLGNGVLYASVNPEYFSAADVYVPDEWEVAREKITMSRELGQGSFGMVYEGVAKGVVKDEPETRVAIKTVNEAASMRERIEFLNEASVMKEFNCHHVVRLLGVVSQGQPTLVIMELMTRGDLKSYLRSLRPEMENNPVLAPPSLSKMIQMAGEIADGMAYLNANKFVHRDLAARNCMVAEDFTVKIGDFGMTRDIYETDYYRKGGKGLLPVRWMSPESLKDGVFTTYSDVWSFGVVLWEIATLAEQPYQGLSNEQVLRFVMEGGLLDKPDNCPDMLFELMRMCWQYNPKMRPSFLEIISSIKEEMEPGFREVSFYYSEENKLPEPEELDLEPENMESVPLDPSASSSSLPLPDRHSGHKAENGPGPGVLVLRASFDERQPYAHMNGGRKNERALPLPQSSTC

Consider `Cc1ccc(NC(=O)CN2CCCC2)cc1Nc1nc(Nc2ccccc2C(N)=O)c2cc[nH]c2n1` [Example 14, 2-{[2-({2-methyl-5-[(1-pyrrolidinylacetyl)amino]phenyl}amino)-1H-pyrrolo[2,3-d]pyrimidin-4-yl]amino}benzamide], for which the IC50 is 100 to 500 nM in assay [1]; 100 to 500 nM in assay [2]; 0.251 to 1 nM in assay [3]; 1.26 to 3.98 nM in assay [4]; 1.26 to 3.98 nM in assay [5].
As for `CCCN1CCC=C(c2ccc(Nc3nc(Nc4ccccc4C(=O)NC)c4cc[nH]c4n3)c(OC)c2)C1` [Example 23, N-methyl-2-[(2-{[2-(methyloxy)-4-(1-propyl-1,2,5,6-tetrahydro-3-pyridinyl)phenyl]amino}-1H-pyrrolo[2,3-d]pyrimidin-4-yl)amino]benzamide], the IC50 in assay [1] is 100 to 500 nM; in assay [2] it was 100 to 500 nM; in assay [3], 0.251 to 1 nM; in assay [4] it was 1.26 to 3.98 nM; in assay [5], 0.251 to 1 nM.
For `Cc1ccc(NC(=O)CN(C)C)cc1Nc1nc(Nc2ccccc2C(=O)NCc2ccc(F)cc2)c2cc[nH]c2n1` [Example 27, 2-{[2-({5-[(N,N-dimethylglycyl)amino]-2-methylphenyl}amino)-1H-pyrrolo[2,3-d]pyrimidin-4-yl]amino}-N-[(4-fluorophenyl)methyl]benzamide], the IC50 in assay [1] was more than 500 nM; in assay [2], more than 500 nM; in assay [3], 1.26 to 3.98 nM; in assay [4], 5.01 to 200 nM; in assay [5], 5.01 to 200 nM.
`CCCN1CCC=C(c2ccc(Nc3nc(Nc4cc5ccccc5cc4C(N)=O)c4cc[nH]c4n3)c(OC)c2)C1` [Example 29, 3-[(2-{[2-(methyloxy)-4-(1-propyl-1,2,5,6-tetrahydro-3-pyridinyl)phenyl]amino}-1H-pyrrolo[2,3-d]pyrimidin-4-yl)amino]-2-naphthalenecarboxamide]: the IC50 in assay [1] is 100 to 500 nM; in assay [2], 100 to 500 nM; in assay [3], 1.26 to 3.98 nM; in assay [4], 1.26 to 3.98 nM; in assay [5], 1.26 to 3.98 nM.
Regarding `CCCN1CCCC(c2ccc(Nc3nc(Nc4cccc(OC)c4C(N)=O)c4cc[nH]c4n3)c(OC)c2)C1` (centres unmarked) [Example 36, 2-(methyloxy)-6-[(2-{[2-(methyloxy)-4-(1-propyl-3-piperidinyl)phenyl]amino}-1H-pyrrolo[2,3-d]pyrimidin-4-yl)amino]benzamide], the IC50 in assay [1] was 100 to 500 nM; in assay [2], 100 to 500 nM; in assay [3], 1.26 to 3.98 nM; in assay [4], 1.26 to 3.98 nM; in assay [5] it was 1.26 to 3.98 nM.
On to `CCCN1CCC=C(c2ccc(Nc3nc(Nc4cccc(F)c4C(N)=O)c4cc[nH]c4n3)c(OC)c2)C1` [Example 41, 2-fluoro-6-[(2-{[2-(methyloxy)-4-(1-propyl-1,2,5,6-tetrahydro-3-pyridinyl)phenyl]amino}-1H-pyrrolo[2,3-d]pyrimidin-4-yl)amino]benzamide], for which the IC50 in assay [1] is 100 to 500 nM; in assay [2], 100 to 500 nM; in assay [3] it was 1.26 to 3.98 nM; in assay [4], 1.26 to 3.98 nM; in assay [5] it was 0.251 to 1 nM.
As for `Cc1ccc(NC(=O)CN(C)C)cc1Nc1nc(Nc2ccc(F)cc2C(N)=O)c2cc[nH]c2n1` [Example 62, 2-{[2-({5-[(N,N-dimethylglycyl)amino]-2-methylphenyl}amino)-1H-pyrrolo[2,3-d]pyrimidin-4-yl]amino}-5-fluorobenzamide], the IC50 in assay [1] is 100 to 500 nM; in assay [2], 100 to 500 nM; in assay [3], 0.251 to 1 nM; in assay [4], 1.26 to 3.98 nM; in assay [5], 5.01 to 200 nM.
As to `COc1cc(N2CCN(CC(C)C)CC2)ccc1Nc1nc(Nc2cc(F)ccc2C(N)=O)c2cc[nH]c2n1` [Example 80, 4-fluoro-2-{[2-({2-(methyloxy)-4-[4-(2-methylpropyl)-1-piperazinyl]phenyl}amino)-1H-pyrrolo[2,3-d]pyrimidin-4-yl]amino}benzamide], the IC50 in assay [1] is 100 to 500 nM; in assay [2] it was less than 100 nM; in assay [3], 0.251 to 1 nM; in assay [4], 1.26 to 3.98 nM; in assay [5], 0.251 to 1 nM.
Consider `CCCN1CCC=C(c2ccc(Nc3nc(Nc4ccc(Cl)cc4C(N)=O)c4cc[nH]c4n3)c(OC)c2)C1` [Example 108, 5-chloro-2-[(2-{[2-(methyloxy)-4-(1-propyl-1,2,5,6-tetrahydro-3-pyridinyl)phenyl]amino}-1H-pyrrolo[2,3-d]pyrimidin-4-yl)amino]benzamide], for which the IC50 in assay [1] was 100 to 500 nM; in assay [2], 100 to 500 nM; in assay [3], 0.251 to 1 nM; in assay [4], 0.251 to 1 nM; in assay [5] it was 0.251 to 1 nM.
On to `CCCN1CCC=C(c2ccc(Nc3nc(Nc4cc(Cl)ccc4C(N)=O)c4cc[nH]c4n3)c(OC)c2)C1` [Example 110, 4-chloro-2-[(2-{[2-(methyloxy)-4-(1-propyl-1,2,5,6-tetrahydro-3-pyridinyl)phenyl]amino}-1H-pyrrolo[2,3-d]pyrimidin-4-yl)amino]benzamide], for which the IC50 is more than 500 nM in assay [1]; 100 to 500 nM in assay [2]; 1.26 to 3.98 nM in assay [3]; 1.26 to 3.98 nM in assay [4]; 0.251 to 1 nM in assay [5].
Turning to `CNC(=O)c1c(F)cc(Cl)cc1Nc1nc(Nc2cc3c(cc2OC)CCN3C(=O)CN(C)C)nc2[nH]ccc12` [Example 120, 4-chloro-2-[(2-{[1-(N,N-dimethylglycyl)-5-(methyloxy)-2,3-dihydro-1H-indol-6-yl]amino}-1H-pyrrolo[2,3-d]pyrimidin-4-yl)amino]-6-fluoro-N-methylbenzamide], the IC50 in assay [1] was 100 to 500 nM; in assay [2], 100 to 500 nM; in assay [3], 0.251 to 1 nM; in assay [4] it was 0.251 to 1 nM; in assay [5] it was 0.251 to 1 nM.
Consider `COc1cc2c(cc1Nc1nc(Nc3cccc(F)c3C(N)=O)c3cc[nH]c3n1)N(C(=O)CN(C)C)[C@H](C)C2` [Example 248, 2-[(2-{[(2R)-1-(N,N-dimethylglycyl)-2-methyl-5-(methyloxy)-2,3-dihydro-1H-indol-6-yl]amino}-1H-pyrrolo[2,3-d]pyrimidin-4-yl)amino]-6-fluorobenzamide], for which the IC50 in assay [1] is 100 to 500 nM; in assay [2], 100 to 500 nM; in assay [3], 5.01 to 158 nM; in assay [4] it was 5.01 to 200 nM; in assay [5], 5.01 to 200 nM.
In the case of `COc1cc2c(cc1Nc1nc(Nc3cccc(F)c3C(N)=O)c3cc[nH]c3n1)N(C(=O)CN(C)C)[C@@H](C)C2` [Example 249, 2-[(2-{[(2S)-1-(N,N-dimethylglycyl)-2-methyl-5-(methyloxy)-2,3-dihydro-1H-indol-6-yl]amino}-1H-pyrrolo[2,3-d]pyrimidin-4-yl)amino]-6-fluorobenzamide], the IC50 was less than 100 nM in assay [1]; less than 100 nM in assay [2]; 0.251 to 1 nM in assay [3]; 0.251 to 1 nM in assay [4]; 1.26 to 3.98 nM in assay [5].
`CNC(=O)c1c(F)cccc1Nc1nc(Nc2cc3c(cc2OC)C[C@H](C)N3C(=O)CN(C)C)nc2[nH]ccc12` [Example 251, 2-[(2-{[(2S)-1-(N,N-dimethylglycyl)-2-methyl-5-(methyloxy)-2,3-dihydro-1H-indol-6-yl]amino}-1H-pyrrolo[2,3-d]pyrimidin-4-yl)amino]-6-fluoro-N-methylbenzamide]: the IC50 in assay [1] was less than 100 nM; in assay [2] it was less than 100 nM; in assay [3] it was 1.26 to 3.98 nM; in assay [4], 1.26 to 3.98 nM; in assay [5], 0.251 to 1 nM.
Turning to `COc1cc(C)c(N(C)C(=O)CN(C)C)cc1Nc1nc(Nc2cccc(F)c2C(N)=O)c2cc[nH]c2n1` [Example 255, 2-[(2-{[5-[(N,N-dimethylglycyl)(methyl)amino]-4-methyl-2-(methyloxy)phenyl]amino}-1H-pyrrolo[2,3-d]pyrimidin-4-yl)amino]-6-fluorobenzamide], the IC50 in assay [1] was more than 500 nM; in assay [2], more than 500 nM; in assay [3], 5.01 to 158 nM; in assay [4], 5.01 to 200 nM; in assay [5], 5.01 to 200 nM.
In the case of `CNC(=O)c1c(F)cccc1Nc1nc(Nc2cc(NC(=O)CN(C)C)c(C)cc2OC)nc2[nH]ccc12` [Example 256, 2-[(2-{[5-[(N,N-dimethylglycyl)amino]-4-methyl-2-(methyloxy)phenyl]amino}-1H-pyrrolo[2,3-d]pyrimidin-4-yl)amino]-6-fluoro-N-methylbenzamide], the IC50 was 100 to 500 nM in assay [1]; less than 100 nM in assay [2]; 0.251 to 1 nM in assay [3]; 0.251 to 1 nM in assay [4]; 0.251 to 1 nM in assay [5].

The values above are taken from US7981903B2, “2-[2-{phenylamino}-1H-pyrrolo[2,3-D]pyrimidin-4-yl)amino] benzamide derivatives as IGF-1R inhibitors for the treatment of cancer” (GlaxoSmithKline LLC, priority 2007, dated 2011).
